Legend:
[1] = system: HCT116 human colorectal carcinoma cells; test: CellTiter-Glo Luminescent Cell Viability Assay; assay type: cell-based; settings: HCT-116, 72 h, 3 days
Method in brief: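 HCT116 cells were exposed for 3 days to compound in triplicate at final concentrations of 5 to 0.0002 […] (1:3 dilutions). Viability was read by CellTiter-Glo luminescence, and IC50 values were calculated.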

[2] = target: T1, DDB1DB/DCAF15 and RBM39 R1R2 complex (Homo sapiens, UniProt Q14498+Q66K64); test: DCAF15 RBM39 Complex Formation Assay (FRET); assay type: binding; settings: FRET ratio Em 665/Em 615, incubated overnight at 4° C.
T1 construct: Amino acids 150 to 331 of RBM39 were cloned into pGEX4T3; GST (from vector pGEX4T3); TEV cleavage site (N); made in house; host or cells: DDB1DB/His-DCAF15: baculovirus/Sf9 co-expression; RBM39 R1R2: E. coli (pGEX4T3)
Method in brief: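 Ternary complex formation read by TR-FRET (Em 665/615, excitation 340 nm) after overnight incubation at 4° C of 20 nM baculovirus DDB1DB/His-DCAF15 and 50 nM E. coli RBM39 RRM1-RRM2 FLAG fragment with 14-point, 3-fold compound dilutions from 1 μM; EC50 from 4-parameter fit.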

T1 sequence (Q66K64 whole entry, the tested form may be a part): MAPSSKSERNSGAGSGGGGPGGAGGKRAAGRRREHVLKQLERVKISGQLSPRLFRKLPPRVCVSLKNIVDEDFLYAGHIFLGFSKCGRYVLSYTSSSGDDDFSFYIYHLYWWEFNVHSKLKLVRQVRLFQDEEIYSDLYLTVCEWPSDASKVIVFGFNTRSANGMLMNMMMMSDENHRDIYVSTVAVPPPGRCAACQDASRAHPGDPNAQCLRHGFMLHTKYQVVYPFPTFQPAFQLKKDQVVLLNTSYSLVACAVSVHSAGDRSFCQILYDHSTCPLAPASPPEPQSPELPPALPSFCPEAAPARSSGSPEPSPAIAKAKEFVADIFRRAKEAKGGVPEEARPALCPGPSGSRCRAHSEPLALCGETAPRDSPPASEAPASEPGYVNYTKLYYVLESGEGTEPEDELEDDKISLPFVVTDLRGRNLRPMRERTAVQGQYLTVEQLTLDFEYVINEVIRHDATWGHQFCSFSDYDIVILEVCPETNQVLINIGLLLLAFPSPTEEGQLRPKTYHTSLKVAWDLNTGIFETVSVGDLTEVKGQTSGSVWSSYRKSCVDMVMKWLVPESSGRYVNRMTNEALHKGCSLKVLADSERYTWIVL
T1 sequence (Q14498 150-331): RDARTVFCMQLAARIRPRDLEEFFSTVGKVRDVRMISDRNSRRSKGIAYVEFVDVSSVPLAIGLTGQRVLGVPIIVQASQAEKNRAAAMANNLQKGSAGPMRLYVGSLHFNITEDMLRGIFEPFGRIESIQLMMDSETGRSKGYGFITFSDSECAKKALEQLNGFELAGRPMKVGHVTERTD
T1 sequence (Q16531 with tags, fused parts or gaps DEL396-708 partner): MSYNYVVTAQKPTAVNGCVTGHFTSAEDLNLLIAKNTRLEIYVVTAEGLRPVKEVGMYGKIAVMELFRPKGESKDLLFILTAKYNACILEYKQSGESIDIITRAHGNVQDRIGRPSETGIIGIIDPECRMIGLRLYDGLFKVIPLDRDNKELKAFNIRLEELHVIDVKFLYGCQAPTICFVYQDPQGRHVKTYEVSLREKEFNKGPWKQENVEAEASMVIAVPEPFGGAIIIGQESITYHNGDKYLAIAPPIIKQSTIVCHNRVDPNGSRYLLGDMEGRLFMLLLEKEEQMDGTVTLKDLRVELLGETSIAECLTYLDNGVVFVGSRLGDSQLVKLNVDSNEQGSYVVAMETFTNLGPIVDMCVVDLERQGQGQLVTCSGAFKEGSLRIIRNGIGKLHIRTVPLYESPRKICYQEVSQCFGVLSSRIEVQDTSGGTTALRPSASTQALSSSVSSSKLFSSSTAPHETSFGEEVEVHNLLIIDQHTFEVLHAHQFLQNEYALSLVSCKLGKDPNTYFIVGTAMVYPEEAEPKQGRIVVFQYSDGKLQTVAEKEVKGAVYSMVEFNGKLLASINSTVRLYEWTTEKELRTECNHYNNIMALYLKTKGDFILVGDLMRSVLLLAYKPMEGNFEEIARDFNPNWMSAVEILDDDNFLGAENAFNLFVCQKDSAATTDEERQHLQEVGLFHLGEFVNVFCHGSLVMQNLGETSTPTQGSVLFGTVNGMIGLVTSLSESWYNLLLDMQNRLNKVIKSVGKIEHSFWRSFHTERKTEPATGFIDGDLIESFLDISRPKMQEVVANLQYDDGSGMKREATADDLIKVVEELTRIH

Compound	EC50 [1] [µM]	IC50 [2] [µM]
C[C@H](O)Cn1cc(S(=O)(=O)Nc2ccc(Cl)c3c(C#N)c[nH]c23)cn1 [Compound 196, N-(4-chloro-3-cyano-1H-indol-7-yl)-1-[(2S)-2-hydroxypropyl]pyrazole-4-sulfonamide]	0.25 to 1	< 0.25
C[C@@H](O)Cn1cc(S(=O)(=O)Nc2ccc(Cl)c3c(C#N)c[nH]c23)cn1 [Compound 197, N-(4-chloro-3-cyano-1H-indol-7-yl)-1-[(2R)-2-hydroxypropyl]pyrazole-4-sulfonamide]	0.25 to 1	< 0.25
Cc1ccc(NS(=O)(=O)c2cnn(C(C)(C)CO)c2)c2[nH]cc(C#N)c12 [Compound 198, N-(3-cyano-4-methyl-1H-indol-7-yl)-1-(2-hydroxy-1,1-dimethyl-ethyl)pyrazole-4-sulfonamide]	< 0.25	< 0.25
CC(C)(O)Cn1cc(S(=O)(=O)Nc2ccc(Cl)c3c(C#N)c[nH]c23)c(F)n1 [Compound 204, N-(4-chloro-3-cyano-1H-indol-7-yl)-3-fluoro-1-(2-hydroxy-2-methyl-propyl)pyrazole-4-sulfonamide]	> 1	< 0.25
Cc1ccc(NS(=O)(=O)c2cn(CC(C)(C)O)nc2F)c2[nH]cc(C#N)c12 [Compound 205, N-(3-cyano-4-methyl-1H-indol-7-yl)-3-fluoro-1-(2-hydroxy-2-methyl-propyl)pyrazole-4-sulfonamide]	0.25 to 1	< 0.25
CC(C)(O)Cn1cc(S(=O)(=O)Nc2ccc(F)c3c(C#N)c[nH]c23)c(F)n1 [Compound 206, N-(3-cyano-4-fluoro-1H-indol-7-yl)-3-fluoro-1-(2-hydroxy-2-methyl-propyl)pyrazole-4-sulfonamide]	> 1	< 0.25
Cc1ccc(NS(=O)(=O)c2cnn([C@H](C)CO)c2)c2[nH]cc(C#N)c12 [Compound 207, (R)—N-(3-cyano-4-methyl-1H-indol-7-yl)-1-(1-hydroxypropan-2-yl)-1H-pyrazole-4-sulfonamide]	< 0.25	< 0.25
C[C@H](CO)n1cc(S(=O)(=O)Nc2ccc(Cl)c3c(C#N)c[nH]c23)cn1 [Compound 208, (R)—N-(4-chloro-3-cyano-1H-indol-7-yl)-1-(1-hydroxypropan-2-yl)-1H-pyrazole-4-sulfonamide]	0.25 to 1	< 0.25
N#Cc1c[nH]c2c(NS(=O)(=O)c3cnn(CCCO)c3)ccc(Cl)c12 [Compound 209, N-(4-chloro-3-cyano-1H-indol-7-yl)-1-(3-hydroxypropyl)-1H-pyrazole-4-sulfonamide]	0.25 to 1	< 0.25
Cc1ccc(NS(=O)(=O)c2cnn(CCCO)c2)c2[nH]cc(C#N)c12 [Compound 210, N-(3-cyano-4-methyl-1H-indol-7-yl)-1-(3-hydroxypropyl)pyrazole-4-sulfonamide]	0.25 to 1	< 0.25
C[C@H](C(N)=O)n1cc(S(=O)(=O)Nc2ccc(Cl)c3c(C#N)c[nH]c23)cn1 [Compound 213, (2R)-2-[4-[(4-chloro-3-cyano-1H-indol-7-yl)sulfamoyl]pyrazol-1-yl]propanamide]	0.25 to 1	< 0.25
N#Cc1c[nH]c2c(NS(=O)(=O)c3cn[nH]c3)ccc(F)c12 [Compound 214, N-(3-cyano-4-fluoro-1H-indol-7-yl)-1H-pyrazole-4-sulfonamide]	> 1	< 0.25
CC(C)(O)CCn1cc(S(=O)(=O)Nc2ccc(Cl)c3c(C#N)c[nH]c23)cn1 [Compound 220, N-(4-chloro-3-cyano-1H-indol-7-yl)-1-(3-hydroxy-3-methyl-butyl)pyrazole-4-sulfonamide]	0.25 to 1	< 0.25
Cc1ccc(NS(=O)(=O)c2cnn(CCC(C)(C)O)c2)c2[nH]cc(C#N)c12 [Compound 221, N-(3-cyano-4-methyl-1H-indol-7-yl)-1-(3-hydroxy-3-methyl-butyl)pyrazole-4-sulfonamide]	< 0.25	< 0.25
N#Cc1c[nH]c2c(NS(=O)(=O)c3cnn([C@@H](CO)C(F)F)c3)ccc(Cl)c12 [Compound 226, N-(4-chloro-3-cyano-1H-indol-7-yl)-1-[(1S)-2,2-difluoro-1-(hydroxymethyl)ethyl]pyrazole-4-sulfonamide]	0.25 to 1	< 0.25

Next, values leading:

EC50 [1] [µM]	IC50 [2] [µM]	Compound
0.25 to 1	< 0.25	N#Cc1c[nH]c2c(NS(=O)(=O)c3cnn(CCCO)c3)ccc(F)c12 [Compound 211, N-(3-cyano-4-fluoro-1H-indol-7-yl)-1-(3-hydroxypropyl)pyrazole-4-sulfonamide]
0.25 to 1	< 0.25	C[C@H](CO)n1cc(S(=O)(=O)Nc2ccc(F)c3c(C#N)c[nH]c23)cn1 [Compound 212, (R)—N-(3-cyano-4-fluoro-1H-indol-7-yl)-1-(1-hydroxypropan-2-yl)-1H-pyrazole-4-sulfonamide]
0.25 to 1	< 0.25	N#Cc1c[nH]c2c(NS(=O)(=O)c3cnn(C(F)F)c3)ccc(F)c12 [Compound 215, N-(3-cyano-4-fluoro-1H-indol-7-yl)-1-(difluoromethyl)pyrazole-4-sulfonamide]
0.25 to 1	< 0.25	N#Cc1c[nH]c2c(NS(=O)(=O)c3cnn(CC(F)(F)F)c3)ccc(F)c12 [Compound 216, N-(3-cyano-4-fluoro-1H-indol-7-yl)-1-(2,2,2-trifluoroethyl)pyrazole-4-sulfonamide]
0.25 to 1	< 0.25	CCn1cc(S(=O)(=O)Nc2ccc(F)c3c(C#N)c[nH]c23)cn1 [Compound 217, N-(3-cyano-4-fluoro-1H-indol-7-yl)-1-ethyl-pyrazole-4-sulfonamide]
0.25 to 1	< 0.25	Cc1ccc(NS(=O)(=O)c2cnn(C34CC(C3)C4)c2)c2[nH]cc(C#N)c12 [Compound 218, 1-(3-bicyclo[1.1.1]pentanyl)-N-(3-cyano-4-methyl-1H-indol-7-yl)pyrazole-4-sulfonamide]
0.25 to 1	< 0.25	N#Cc1c[nH]c2c(NS(=O)(=O)c3cnn(C45CC(C4)C5)c3)ccc(F)c12 [Compound 219, 1-(3-bicyclo[1.1.1]pentanyl)-N-(3-cyano-4-fluoro-1H-indol-7-yl)pyrazole-4-sulfonamide]
0.25 to 1	< 0.25	CC(C)(O)CCn1cc(S(=O)(=O)Nc2ccc(F)c3c(C#N)c[nH]c23)cn1 [Compound 222, N-(3-cyano-4-fluoro-1H-indol-7-yl)-1-(3-hydroxy-3-methyl-butyl)pyrazole-4-sulfonamide]
0.25 to 1	< 0.25	N#Cc1c[nH]c2c(NS(=O)(=O)c3cnn(C45CC(C4)C5)c3)ccc(Cl)c12 [Compound 223, 1-(3-bicyclo[1.1.1]pentanyl)-N-(4-chloro-3-cyano-1H-indol-7-yl)pyrazole-4-sulfonamide]
0.25 to 1	< 0.25	CC(C)(CO)n1cc(S(=O)(=O)Nc2ccc(F)c3c(C#N)c[nH]c23)cn1 [Compound 224, N-(3-cyano-4-fluoro-1H-indol-7-yl)-1-(2-hydroxy-1,1-dimethyl-ethyl)pyrazole-4-sulfonamide]
0.25 to 1	< 0.25	C[C@H](CF)n1cc(S(=O)(=O)Nc2ccc(F)c3c(C#N)c[nH]c23)cn1 [Compound 225, N-(3-cyano-4-fluoro-1H-indol-7-yl)-1-[(1R)-2-fluoro-1-methyl-ethyl]pyrazole-4-sulfonamide]
